Test [1] deals with T1, D2R (Homo sapiens, UniProt P14416). Nature of the test: HTRF competitive binding screening of virtual hits at 10 µM (normalized decrease in fluorescence). The conditions noted are these: for Normalized Decrease in Fluorescence ± SD: Table 3, 10 µM, n = 4, normalized to the control; for NDF (normalized decreased fluorescence) ± SD: Table S9, all selected virtual hits, n = 4, 10 µM. (In general: In TR-FRET formats the signal depends on donor and acceptor labels being close together.)
T1 sequence (P14416 whole entry): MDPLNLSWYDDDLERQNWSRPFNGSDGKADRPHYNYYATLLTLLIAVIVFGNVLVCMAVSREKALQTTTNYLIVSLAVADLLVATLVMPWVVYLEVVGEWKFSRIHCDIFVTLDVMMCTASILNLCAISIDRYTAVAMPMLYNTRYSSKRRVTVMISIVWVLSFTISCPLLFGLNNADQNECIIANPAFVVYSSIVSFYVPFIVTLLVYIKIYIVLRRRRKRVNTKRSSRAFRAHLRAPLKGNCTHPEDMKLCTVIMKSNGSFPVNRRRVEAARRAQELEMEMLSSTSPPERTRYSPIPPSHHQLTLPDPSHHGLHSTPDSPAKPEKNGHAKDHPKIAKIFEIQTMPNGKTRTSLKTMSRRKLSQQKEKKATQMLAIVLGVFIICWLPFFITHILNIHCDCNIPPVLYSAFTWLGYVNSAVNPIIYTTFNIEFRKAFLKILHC

The target in test [2] is T1, D2R. Particulars: cited from earlier work.
Test [3] addresses T1, D2R. Nature of the test: HTRF KI determination of the selected ligands. Type of test: binding. Particulars: for Fold Difference in comparison to the determined KI of dopamine / Ki: Table 4; for Ki: n = 6. On the procedure: The selected compounds were investigated in vitro to determine their binding affinities (KI values) at D2R.
All the HTRF assays were performed using a Tecan Spark plate reader. The respective settings were specifically modified and optimized for the determination of D2R ligand-binding affinities. […] Fluorophores were excited at 320 nm. A Dichroic 510 mirror was used, while lag and integration times of 100 and 400 µs were applied, respectively. Flashes were set to 75. Electronic gain was automatically optimized, while the z-position was optimized based on the well with the highest expected signal. […] The first plate was used to determine the gain and the z-position. Subsequently, the determined values were set manually for the second plate to enable direct comparison between the different plates.
The cells were stored in liquid nitrogen until further use. […] Bromocriptine mesylate (50 mg; CAYM14598-50) was acquired from VWR. The assay was conducted according to the standard operation protocol (SOP) available from PerkinElmer/cisbio. The 96-well plates were incubated at room temperature for 2 h. The 96-well plates were read on a Tecan Spark plate reader (the settings are shown in Section 4.5). The respective concentrations of the dilution series were performed in triplicates. In total, KD determination was performed three times.
The materials described in 4.6 were also used during KI determination of the ligands selected after screening. […] KI was determined following the SOP available at PerkinElmer/cisbio. The 96-well plates were incubated at room temperature in the dark for 2 h. The 96-well plates were read on a Tecan Spark plate reader (the settings are shown in Section 4.5). In total, KI determination was performed twice.

Setting [4] is: Table S2, data set of inactives, radio-ligand binding (RLB) assays, ref ChEMBL, [71]-[92], read-out: KI.

As usually defined, the Ki is a measure of affinity in units of concentration, obtained from inhibition or displacement.

Read-outs that look alike come from different tables or passages of the source.

On to `CN1CCc2cccc3c2[C@H]1Cc1ccc(O)c(O)c1-3` [Compound 1, Apomorphine], for which the “Normalized Decrease in Fluorescence ± SD” value on D2R [1] is reported as 9.44 ± 5.97.

As to `CC(C)C[C@H]1C(=O)N2CCC[C@H]2[C@]2(O)O[C@](NC(=O)[C@@H]3C=C4c5cccc6[nH]c(Br)c(c56)C[C@H]4N(C)C3)(C(C)C)C(=O)N12` [Compound 2, Bromocriptine], on D2R [2], the Ki was 0.0009 µM. For the same molecule, at D2R [1], the “Normalized Decrease in Fluorescence ± SD” value is 39.10 ± 1.31.

For the molecule `C=CC1CN2CCC1CC2C(O)c1ccnc2ccc(O)cc12` (centres unmarked) [Compound 10], the “NDF (normalized decreased fluorescence) ± SD” value on D2R [1] came out at 1.13 ± 0.37. Same read-out and setting: the figure for `CC/N=C1/SC(CC(=O)Nc2ccccc2C(F)(F)F)C(=O)N1CC` (centres unmarked) [Compound 11] is 0.84 ± 0.23. As for `CC1CC(C)CN(CCC(=O)Nc2ccc(F)c(F)c2)C1` (centres unmarked) [Compound 12], at D2R [1], the “NDF (normalized decreased fluorescence) ± SD” value is 1.05 ± 0.50. In the case of `CN1CCN(C2Cc3ccc(O)cc3Sc3ccc(Cl)cc32)CC1` (centres unmarked) [Compound 14], on D2R [1], the “Normalized Decrease in Fluorescence ± SD” value is 40.40 ± 1.39. On D2R [3], the “activity (KI range in words)” value was “nanomolar”, the “Fold Difference in comparison to the determined KI of dopamine” value (from here on “Fold Difference in comparison”) amounted to 2700 and the Ki amounted to 0.004 µM. `NS(=O)(=O)c1ccc(CCNCc2ccc(-c3cc(Cl)ccc3Cl)o2)cc1` [Compound 15]: on D2R [1], the “Normalized Decrease in Fluorescence ± SD” value is on record as 3.99 ± 2.58 and the “NDF (normalized decreased fluorescence) ± SD” value is 3.99 ± 2.58. Besides, at D2R [3], the “activity (KI range in words)” value was “micromolar”, the “Fold Difference in comparison” value is given as 2.6 and affinity was put at a Ki of 4.31 µM.

In the case of `CCN(CCC(=O)Nc1cccc(OC)c1)Cc1ccccc1` [Compound 16], at D2R [1], the “Normalized Decrease in Fluorescence ± SD” value is 15.74 ± 18.15 and the “NDF (normalized decreased fluorescence) ± SD” value came to 15.74 ± 18.15. In addition, on D2R [3], the “Fold Difference in comparison” value was 1.1 and the Ki was determined as 10 µM.

On to `O=C(CCN1CCN(c2ccccc2F)CC1)Nc1cccc(F)c1` [Compound 17], for which, on D2R [1], the “Normalized Decrease in Fluorescence ± SD” value was found to be 8.18 ± 3.62 and the “NDF (normalized decreased fluorescence) ± SD” value was found to be 8.18 ± 3.62. On D2R [3], the “activity (KI range in words)” value is “micromolar”, the “Fold Difference in comparison” value was found to be 9.0 and the Ki stood at 1.24 µM. Take `O[C@H](CNCCNc1ccc(C(F)(F)F)cn1)CSc1ccc(F)cc1` [Compound 18]: at D2R [1], the “Normalized Decrease in Fluorescence ± SD” value is given as 10.85 ± 4.93 and the “NDF (normalized decreased fluorescence) ± SD” value is on record as 10.85 ± 4.93. For the same molecule, at D2R [3], the “activity (KI range in words)” value is listed as “micromolar”, the “Fold Difference in comparison” value amounted to 4.2 and the Ki was 2.63 µM. As for `NC(=O)c1ccccc1OCCCN1CCN(c2ccccc2)CC1` [Compound 19], at D2R [1], the “Normalized Decrease in Fluorescence ± SD” value was 22.08 ± 6.62 and the “NDF (normalized decreased fluorescence) ± SD” value is 22.08 ± 6.62. Further, on D2R [3], the “activity (KI range in words)” value was “submicromolar”, the “Fold Difference in comparison” value worked out at 34.7 and the Ki came out at 0.32 µM. As for `O=C(CCCN1CC=C(n2c(=O)[nH]c3ccccc32)CC1)c1ccc(F)cc1` [Droperidol, droperidol], the “Normalized Decrease in Fluorescence ± SD” value at D2R [1] came to 38.69 ± 2.56. Still for that read-out and setting: the figure for `c1cnc(N2CCN(Cc3ccc4c(c3)OCO4)CC2)nc1` [Piribedil, piribedil] is 9.21 ± 3.80.

On to `COc1cccc(CCc2ccccc2OCCCCN2CCc3ccccc3C2)c1` [SC113, 2-[4-[2-[2-(3-methoxyphenyl)ethyl]phenoxy]butyl]-3,4-dihydro-1H-isoquinoline], for which the Ki on D2R [2] (setting [4]) is > 1000 µM.

On to `COc1cccc(CCc2ccccc2OCCN2CCc3cc(OC)c(OC)cc3C2)c1` [SC114, 6,7-dimethoxy-2-[2-[2-[2-(3-methoxyphenyl)ethyl]phenoxy]ethyl]-3,4-dihydro-1H-isoquinoline], for which, at D2R [2] (setting [4]), the Ki is > 1000 µM. On to `COc1cccc(CCc2ccccc2OCCCN2CCc3cc(OC)c(OC)cc3C2)c1` [SC115, 6,7-dimethoxy-2-[3-[2-[2-(3-methoxyphenyl)ethyl]phenoxy]propyl]-3,4-dihydro-1H-isoquinoline], for which the Ki on D2R [2] (read-out: KI) is > 1000 µM.

As for `COc1cccc(CCc2ccccc2OCCCCN2CCN(C)CC2)c1` [SC116, 1-[4-[2-[2-(3-methoxyphenyl)ethyl]phenoxy]butyl]-4-methylpiperazine], on D2R [2] (setting [4]), the Ki is > 1000 µM. Take `COc1cccc(CCc2ccccc2OCCCCN2CCN(c3ncccn3)CC2)c1` [SC117, 2-[4-[4-[2-[2-(3-methoxyphenyl)ethyl]phenoxy]butyl]piperazin-1-yl]pyrimidine]: on D2R [2] (setting [4]), the Ki was 854 µM. Consider `COc1cccc(CCc2ccccc2OCCCCCN2CCN(c3ncccn3)CC2)c1` [SC118, 2-[4-[5-[2-[2-(3-methoxyphenyl)ethyl]phenoxy]pentyl]piperazin-1-yl]pyrimidine], for which the Ki on D2R [2] (setting [4]) was > 1000 µM. Turning to `COc1cccc(CCc2ccccc2OCCCCCN2CCN(c3ccc(F)cc3)CC2)c1` [SC119, 1-(4-fluorophenyl)-4-[5-[2-[2-(3-methoxyphenyl)ethyl]phenoxy]pentyl]piperazine], the Ki at D2R [2] (setting [4]) is 847 µM.

With `COc1cccc(CCc2ccccc2OCCN2CCN(c3ccccc3OC)CC2)c1` [SC120, 1-(2-methoxyphenyl)-4-[2-[2-[2-(3-methoxyphenyl)ethyl]phenoxy]ethyl]piperazine], the Ki at D2R [2] (setting [4]) is 427 µM. Take `COc1cccc(CCc2ccccc2OCCN2CCN(c3cccc(Cl)c3)CC2)c1` [SC121, 1-(3-chlorophenyl)-4-[2-[2-[2-(3-methoxyphenyl)ethyl]phenoxy]ethyl]piperazine]: on D2R [2] (setting [4]), the Ki is > 1000 µM. Turning to `COc1cccc(CCc2ccccc2OCCCCN2CCN(c3ccccc3OC)CC2)c1` [SC122, 1-(2-methoxyphenyl)-4-[4-[2-[2-(3-methoxyphenyl)ethyl]phenoxy]butyl]piperazine], the Ki on D2R [2] (setting [4]) was 67 µM.

`COc1cccc(CCc2ccccc2OCCCN2CCN(C)CC2)c1` [SC123, 1-[3-[2-[2-(3-methoxyphenyl)ethyl]phenoxy]propyl]-4-methylpiperazine]: at D2R [2] (setting [4]), the Ki is 565 µM. Take `COc1cccc(CCc2ccccc2OCCCCCN2CCc3ccccc3C2)c1` [SC124, 2-[5-[2-[2-(3-methoxyphenyl)ethyl]phenoxy]pentyl]-3,4-dihydro-1H-isoquinoline]: on D2R [2] (setting [4]), the Ki is > 1000 µM.

Take `COc1cccc(CCc2ccccc2OCCCCCN2CCc3cc(OC)c(OC)cc3C2)c1` [SC125, 6,7-dimethoxy-2-[5-[2-[2-(3-methoxyphenyl)ethyl]phenoxy]pentyl]-3,4-dihydro-1H-isoquinoline]: the Ki at D2R [2] (setting [4]) is > 1000 µM. Take `COc1cccc(CCc2ccccc2OCCN2CCc3ccccc3C2)c1` [SC126, 2-[2-[2-[2-(3-methoxyphenyl)ethyl]phenoxy]ethyl]-3,4-dihydro-1H-isoquinoline]: the Ki at D2R [2] (read-out: KI) is > 1000 µM. Consider `c1ccc(CCC2CN(Cc3nc4ccccc4[nH]3)CCO2)cc1` (centres unmarked) [SC127, 4-(1H-benzimidazol-2-ylmethyl)-2-(2-phenylethyl)morpholine], for which the Ki at D2R [2] (setting [4]) was > 100 µM. With `CCN1CCC[C@H]1CNC(=O)c1cc(S(N)(=O)=O)ccc1OC` [Sulpiride, (S)-(−)-sulpiride], the “Normalized Decrease in Fluorescence ± SD” value at D2R [1] came to 30.65 ± 6.79. On to SC144, for which the “NDF (normalized decreased fluorescence) ± SD” value at D2R [1] is on record as 1.02 ± 0.36.

Source of the values: publication PMC9318694 (Molecules, 2022).
